# Measured values as given in patent US8796463B2 (priority 2009, dated 2014).
# “And” between values parts separate entries of the source, which are not always exact repeats. Identical values can stand only once.
# Assays:
# [1] = test system: Phytophthora infestans; assay type: in vivo; conditions: tomato, preventive spray, 100 ppm of active ingredient, evaluated 7 days after inoculation
# [2] = test system: Plasmopara viticola; test: Plasmopara test (grapevines) / preventive; assay type: in vivo; conditions: preventive spray, 10 ppm of active ingredient, evaluated 6 days after inoculation
# Protocol: Plasmopara Test (Grapevines)/Preventive
# To produce a suitable preparation of active compound, 1 part by weight of active compound is mixed with the stated amounts of solvent and emulsifier, and the concentrate is diluted with water to the desired concentration.
# To test for preventive activity, young plants are sprayed with the preparation of active compound at the stated rate of application. After the spray coating has dried on, the plants are inoculated with an aqueous spore suspension of Plasmopara viticola and then remain for 1 day in an incubation cabinet at approximately 20° C. and a relative atmospheric humidity of 100%. The plant is subsequently placed for 4 days in a greenhouse at approximately 21° C. and a relative atmospheric humidity of approximately 90%. The plants are then misted and placed for 1 day in an incubation cabinet.
# The test is evaluated 6 days after the inoculation. 0% means an efficacy which corresponds to that of the untreated control, while an efficacy of 100% means that no disease is observed.
# [3] = log P by HPLC on reversed phase columns (EEC directive 79/831 Annex V.A8); assay type: physicochemical; conditions: for logp: pH 2.7, 0.1% formic acid in water / acetonitrile gradient; for chromatographic logP: reversed phase HPLC column, pH 2.7, formic acid eluent, reported in preparation example, read-out: log P(HCOOH)
# Protocol: Measurement of log P values was performed according EEC directive 79/831 Annex V.A8 by HPLC (High Performance Liquid Chromatography) on reversed phase columns with the following method:
# measurement of LC-MS was done at pH 2.7 with 0.1% formic acid in water and with acetonitrile (contains 0.1% formic acid) as eluent with a linear gradient from 10% acetonitrle to 95% acetonitrile.
# Calibration was done with not branched alkan2-ones (with 3 to 16 carbon atoms) with known log P-values (measurement of log P values using retention times with linear interpolation between successive alkanones). lambda-maX-values were determined using UV-spectra from 200 nm to 400 nm and the peak values of the chromatographic signals.
# [4] = test system: Pythium ultimum; test: Pythium test (cotton) / seed treatment; assay type: in vivo; conditions: 10 g/dt seed of active ingredient, emerged seedlings after 7 days
# Protocol: Pythium Test (Cotton)/Seed Treatment
# The test is performed under greenhouse conditions.
# Cotton seeds, treated with the active compound or compound combinations, solved in N-methyl-2-pyrrolidon and diluted with water to the desired dosages, were sown in 6*6 cm pots containing 4 cm of a 1:1 mix of steamed field soil and sand.
# Perlite was incubated with mycelium fragments of Pythium ultimum. 1 ml of infected perlite was scattered between the treated cotton seeds. Seeds were then covered by light expanded clay aggregate. Pots were incubated in the greenhouse 7 days at 20° C. and 80% relative humidity.
# Assessment consisted of counting of emerged seedlings. 0% means an efficacy which corresponds to that of the control, while an efficacy of 100% means that all seedlings have emerged.
Compound,Efficacy % [1] [%],Efficacy % [2],logp [3],Efficacy % [4] [%],chromatographic logP [3]
Cn1nnnc1C(=NOCc1cccc(NC(=O)C2CCc3ccccc3O2)n1)c1ccccc1 (stereo not drawn) [Example 5],95,89%,4.01,,
Cc1ccc2c(c1)OC(C(=O)Nc1cccc(CON=C(c3ccccc3)c3nnnn3C)n1)CO2 (stereo not drawn) [Example 7],95,75%,4.03,,
Cc1cccc2c1OC(C(=O)Nc1cccc(CON=C(c3ccccc3)c3nnnn3C)n1)CO2 (stereo not drawn) [Example 8],95,87%,4.08,,
Cn1nnnc1C(=NOCc1cccc(NC(=O)C2COc3ccccc3O2)n1)c1ccccc1 (stereo not drawn) [Example 9],85,97%,3.69,,
"Cn1nnnc1C(=NOCc1csc(NC(=O)C2CCc3ccccc3O2)n1)c1ccccc1 (stereo not drawn) [Example 10, N-{4-[({[(1-methyl-1H-tetrazol-5-yl)(phenyl)methylene]amino}oxy)methyl]-1,3-thiazol-2-yl}chromane-2-carboxamide]",100,100%,,86,3.78
Cn1nnnc1C(=NOCc1csc(NC(=O)C2COc3ccccc3O2)n1)c1ccccc1 (stereo not drawn) [Example 11],95,98%,3.46,77,
COc1ccc2c(c1)OC(C(=O)Nc1nc(CON=C(c3ccccc3)c3nnnn3C)cs1)CC2 (stereo not drawn) [Example 40],98,96%,3.78,,
"Cn1nnnc1C(=NOCc1cccc(NC(=O)C2Cc3ccccc3O2)n1)c1ccccc1 (stereo not drawn) [Example 41, N-{6-[({[(1-methyl-1H-tetrazol-5-yl)(phenyl)methylene]amino}oxy)methyl]pyridin-2-yl}-2,3-dihydro-1-benzofuran-2-carboxamide]",89,97% and 91%,,92,3.67
Cn1nnnc1C(=NOCc1csc(NC(=O)C2Cc3ccccc3O2)n1)c1ccccc1 (stereo not drawn) [Example 42],89,100%,3.39,,
Cc1nnnn1C(=NOCc1csc(NC(=O)C2Cc3ccccc3O2)n1)c1ccccc1 (stereo not drawn) [Example 45],98,96%,3.44,,
Cc1nnnn1C(=NOCc1cccc(NC(=O)C2Cc3ccccc3O2)n1)c1ccccc1 (stereo not drawn) [Example 56],100,85%,3.71,,
Cn1nnnc1C(=NOCc1cccc(NC(=O)C2Oc3ccccc3O2)n1)c1ccccc1 [Example 60],95,97%,3.44,,
